From patent publication US20220177462A1, “SUBSTITUTED HETEROCYCLIC AMIDE COMPOUND AND PREPARATION METHOD THEREFOR AND PHARMACEUTICAL USE THEREOF” (GENFLEET THERAPEUTICS (SHANGHAI) INC., priority 2019, published 2022)

What follows are compounds tested on U937 cells (assay: Inhibitory activity against programmed necroptosis of U937 cells induced by TNF-α). Details: Homo sapiens, U-937, 48 h, 100 ng/ml human TNF-α and 25 μM Q-VD-Oph, 48 hours, CellTiter-Glo survival rate; read-out: U937 IC50.
Assay type: cell-based, human
Method: The U937 cell strain which was used in the following Testing Examples was derived from ATCC, No.: CRL-1593.2, batch No.: 63479999, culture medium: RPMI-1640+10% FBS.
The compound was dissolved in DMSO to prepare a 10 mM stock solution. The stock solution was diluted in 3.16 folds with DMSO to a series of gradient concentrations. Then, the resultant solution was diluted in 250 folds with a culture medium to prepare a working solution. The U937 cells were inoculated in a 384-well plate at 5000/well. The compound at respective concentration was added to each of the cells, and was mixed with the cells homogeneously. 100 ng/ml human TNF-α and 25 μM Q-VD-Oph were added simultaneously to induce programmed necroptosis of the cells. The final concentration of DMSO was 2%. The cells were placed in the incubator at 37° C. and 5% CO2 for further culture of 48 hours. Celltiter-Glo reagent was used for detection. After adequate pyrolysis reaction, the chemiluminescence readout value was recorded by a microplate reader. The survival rate was calculated from the detection results using the equation as follows: SR (%)=(RLU compound−RLU blank)/(RLU high control−RLU blank)×100%. The survival rate was plotted against the final concentration of respective compound using a 4-parameter fitting to calculate the inhibitory IC50 of the compound against programmed necroptosis of cells induced by TNF-a.

Row | SMILES | IC50 [µM]
1 | COc1ncc(-c2ccc3nc(N)sc3c2)cc1C(=O)NC(C)c1ccccc1OC(F)(F)F (single isomer, unassigned) [Compound Z1, 5-(2-aminobenzothiazol-6-yl)-2-methoxy-N-(1-(2-(trifluoromethoxy)phenyl)ethyl)nicotinamide] | 0.052
2 | CC(NC(=O)c1cnc(Cl)c(-c2ccc3nc(N)sc3c2)c1)c1ccccc1OC(F)(F)F (stereo not drawn) [Compound Z8, 5-(2-aminobenzo[d]thiazol-6-yl)-6-chloro-N-(1-(2-(trifluoromethoxy)phenyl)ethyl)nicotinamide] | 0.088
3 | Cc1ncc(-c2ccc3nc(N)sc3c2)cc1C(=O)NCc1c(F)cccc1OCC1CCCC1 [Compound Z12, 5-(2-aminobenzo[d]thiazol-6-yl)-N-(2-(cyclopentylmethoxy)-6-fluorobenzyl)-2-methylnicotinamide] | 0.01
4 | COc1ncc(C(=O)NCc2cc(F)ccc2OC2CCCC2)cc1-c1ccc2nc(N)sc2c1 [Compound Z13, 5-(2-aminobenzo[d]thiazol-6-yl)-N-(2-(cyclopentyloxy)-5-fluorobenzyl)-6-methoxynicotinamide] | 0.017
5 | COc1ncc(-c2ccc3nc(N)sc3c2)cc1C(=O)NCc1cc(OC(F)(F)F)ccc1F [Compound Z14, 5-(2-aminobenzo[d]thiazol-6-yl)-N-(2-fluoro-5-(trifluoromethoxy)benzyl)-2-methoxynicotinamide] | 0.006
6 | COc1ncc(-c2ccc3nc(N)sc3c2)cc1C(=O)NCCCc1ccccc1 [Compound Z16, 5-(2-aminobenzo[d]thiazol-6-yl)-2-methoxy-N-(3-phenylpropyl)nicotinamide] | 0.026
7 | COc1ncc(-c2ccc3nc(N)sc3c2)cc1C(=O)N1CCCC(Cc2ccc(F)cc2)C1 (stereo not drawn) [Compound Z17, (5-(2-aminobenzo[d]thiazol-6-yl)-2-methoxypyridin-3-yl)(3-(4-fluorobenzyl)piperidin-1-yl)methanone] | 0.004
8 | COc1ncc(-c2ccc3nc(N)sc3c2)cc1C(=O)NCc1c(F)cccc1OC1CCCC1 [Compound Z18, 5-(2-aminobenzo[d]thiazol-6-yl)-N-(2-(cyclopentyloxy)-6-fluorobenzyl)-2-methoxynicotinamide] | 0.004
9 | COc1ncc(-c2ccc3nc(N)sc3c2)cc1C(=O)NCc1cc(F)ccc1OC1CCCC1 [Compound Z19, 5-(2-aminobenzo[d]thiazol-6-yl)-N-(2-(cyclopentyloxy)-5-fluorobenzyl)-2-methoxynicotinamide] | 0.007
10 | COc1ncc(-c2ccc3nc(N)sc3c2)cc1C(=O)NCc1ccccc1OCC1CC1 [Compound Z20, 5-(2-aminobenzo[d]thiazol-6-yl)-N-(2-(cyclopropylmethoxy)benzyl)-2-methoxynicotinamide] | 0.018
11 | Nc1nc2ccc(-c3cncc(C(=O)NCc4ccccc4OCC4CC4)c3)cc2s1 [Compound Z22, 5-(2-aminobenzo[d]thiazol-6-yl)-N-(2-(cyclopropylmethoxy)benzyl)nicotinamide] | 0.062
12 | CC(NC(=O)c1cc(-c2ccn3nc(N)nc3c2)cc2[nH]ccc12)c1ccccc1OC(F)(F)F (stereo not drawn) [Compound Z24, 6-(2-amino-[1,2,4]triazolo[1,5-a]pyridin-7-yl)-N-(1-(2-(trifluoromethoxy)phenyl)ethyl)-1H-indole-4-carboxamide] | 0.151
13 | CC(NC(=O)c1cc(-c2ccn3nc(N)nc3c2)c2cc[nH]c2c1)c1ccccc1OC(F)(F)F (stereo not drawn) [Compound Z25, 4-(2-amino-[1,2,4]triazolo[1,5-a]pyridin-7-yl)-N-(1-(2-(trifluoromethoxy)phenyl)ethyl)-1H-indole-6-carboxamide] | 0.14
14 | COc1nc(C)c(-c2ccc3nc(N)sc3c2)cc1C(=O)NC(C)c1ccccc1OC(F)(F)F (stereo not drawn) [Compound Z37, 5-(2-aminobenzo[d]thiazol-6-yl)-2-methoxy-6-methyl-N-(1-(2-(trifluoromethoxy)phenyl)ethyl)nicotinamide] | 0.045
15 | COc1nc(C)c(-c2ccc3nc(N)sc3c2)cc1C(=O)NCc1cc(F)cc(F)c1OCC1CC1 [Compound Z38, 5-(2-aminobenzo[d]thiazol-6-yl)-N-(2-(cyclopropylmethoxy)-3,5-difluorobenzyl)-2-methoxy-6-methylnicotinamide] | 0.014
16 | COc1nc(C)c(-c2ccc3nc(N)sc3c2)cc1C(=O)NCc1ccccc1OC1CCOC1 (stereo not drawn) [Compound Z40, 5-(2-aminobenzo[d]thiazol-6-yl)-2-methoxy-6-methyl-N-(2-((tetrahydrofuran-3-yl)oxy)benzyl)nicotinamide] | 0.068
17 | COc1nc(C)c(-c2ccc3nc(N)sc3c2)cc1C(=O)NCc1cccnc1OC1CCCC1 [Compound Z41, 5-(2-aminobenzo[d]thiazol-6-yl)-N-((2-(cyclopentyloxy)pyridin-3-yl)methyl)-2-methoxy-6-methylnicotinamide] | 0.014
18 | COc1nc(C)c(-c2ccc3nc(N)sc3c2)cc1C(=O)NCc1ccccc1OC(C)C [Compound Z42, 5-(2-aminobenzo[d]thiazol-6-yl)-N-(2-isopropoxybenzyl)-2-methoxy-6-methylnicotinamide] | 0.043
19 | Cc1ncc(-c2ccc3nc(N)sc3c2)cc1C(=O)NC(C)c1cc(OC(F)(F)F)ccc1F (stereo not drawn) [Compound Z43, 5-(2-aminobenzo[d]thiazol-6-yl)-N-(1-(2-fluoro-5-(trifluoromethoxy)phenyl)ethyl)-2-methylnicotinamide] | 0.003
20 | CC(NC(=O)c1cc(-c2ccc3nc(N)sc3c2)cnc1N)c1ccccc1OC(F)(F)F (stereo not drawn) [Compound Z46, 2-amino-5-(2-aminobenzo[d]thiazol-6-yl)-N-(1-(2-(trifluoromethoxy)phenyl)ethyl)nicotinamide] | 0.076
21 | COc1ncc(-c2ccc3nc(N)sc3c2)cc1C(=O)NC(C)c1c(F)cccc1OC(F)(F)F (stereo not drawn) [Compound Z48, 5-(2-aminobenzo[d]thiazol-6-yl)-N-(1-(2-fluoro-6-(trifluoromethoxy)phenyl)ethyl)-2-methoxynicotinamide] | 0.088
22 | COc1ncc(-c2ccc3nc(N)sc3c2)cc1C(=O)NCc1ccccc1OC(C)C [Compound Z50, 5-(2-aminobenzo[d]thiazol-6-yl)-N-(2-isopropoxybenzyl)-2-methoxynicotinamide] | 0.049
23 | COc1ncc(-c2ccc3nc(N)sc3c2)cc1C(=O)NCc1cccnc1OC1CCCC1 [Compound Z52, 5-(2-aminobenzo[d]thiazol-6-yl)-N-((2-(cyclopentyloxy)pyridin-3-yl)methyl)-2-methoxynicotinamide] | 0.019
24 | COc1ncc(-c2ccc3nc(N)sc3c2)cc1C(=O)NCc1ccccc1OC1CCOC1 (stereo not drawn) [Compound Z53, 5-(2-aminobenzo[d]thiazol-6-yl)-2-methoxy-N-(2-((tetrahydrofuran-3-yl)oxy)benzyl)nicotinamide] | 0.042
25 | Cn1ncc2c(-c3ccn4nc(N)nc4c3)cc(C(=O)NCc3cccnc3OC3CCCC3)cc21 [Compound Z57, 4-(2-amino-[1,2,4]triazolo[1,5-a]pyridin-7-yl)-N-((2-(cyclopentyloxy)pyridin-3-yl)methyl)-1-methyl-1H-indazole-6-carboxamide] | 0.011
26 | Cn1ncc2c(-c3ccn4nc(N)nc4c3)cc(C(=O)NCc3cc(F)ccc3OCC3CC3)cc21 [Compound Z59, 4-(2-amino-[1,2,4]triazolo[1,5-a]pyridin-7-yl)-N-(2-(cyclopropylmethoxy)-5-fluorobenzyl)-1-methyl-1H-indazole-6-carboxamide] | 0.024
27 | CC(c1ccc(F)cc1)n1cc(NC(=O)c2cc(-c3ccn4nc(N)nc4c3)c3cnn(C)c3c2)cn1 (stereo not drawn) [Compound Z60, 4-(2-amino-[1,2,4]triazolo[1,5-a]pyridin-7-yl)-N-(1-(1-(4-fluorophenyl)ethyl)-1H-pyrazol-4-yl)-1-methyl-1H-indazole-6-carboxamide] | 0.213
28 | Cn1ncc2c(-c3ccn4nc(N)nc4c3)cc(C(=O)NCc3cc(F)ccc3OC3CCOCC3)cc21 [Compound Z61, 4-(2-amino-[1,2,4]triazolo[1,5-a]pyridin-7-yl)-N-(5-fluoro-2-((tetrahydro-2H-pyran-4-yl)oxy)benzyl)-1-methyl-1H-indazole-6-carboxamide] | 0.002
29 | Cn1ncc2c(-c3ccn4nc(N)nc4c3)cc(C(=O)NCc3cc(F)ccc3OC3CCOC3)cc21 (stereo not drawn) [Compound Z62, 4-(2-amino-[1,2,4]triazolo[1,5-a]pyridin-7-yl)-N-(5-fluoro-2-((tetrahydrofuran-3-yl)oxy)benzyl)-1-methyl-1H-indazole-6-carboxamide] | 0.03
30 | COc1ncc(-c2ccc3nc(N)sc3c2)cc1C(=O)Nc1cnn(C(C)c2ccc(F)cc2)c1 (stereo not drawn) [Compound Z63, 5-(2-aminobenzo[d]thiazol-6-yl)-N-(1-(1-(4-fluorophenyl)ethyl)-1H-pyrazol-4-yl)-2-methoxynicotinamide] | 0.007
